Numbers after ± are expanded uncertainties.
Tests used:
[1] = Crystal; DTA
[2] = Molar enthalpy of transition or fusion; conditions: Crystal; DSC

CN[C@@]1(c2ccccc2Cl)CCCCC1=O [(R)-ketamine]
Normal melting temperature [1]: 121.0 ± 0.5 °C | Molar enthalpy of transition or fusion [2]: 6.86 ± 0.198 kcal/mol

CN[C@]1(c2ccccc2Cl)CCCCC1=O [(S)-ketamine]
Normal melting temperature [1]: 121.0 ± 0.5 °C | Molar enthalpy of transition or fusion [2]: 6.86 ± 0.198 kcal/mol

From the NIST ThermoML archive (doi:10.1021/je8002207)
